Holding throughout (type): cell-based
The target in series [1] is T1, human Nav1.5 (Homo sapiens (Human), UniProt Q14524). Kind of series: Qpatch automated patch-clamp, peak Nav1.5 current inhibition, 5-Hz AF-like assay (holding potential -85 mV). Conditions: CHO-K1 cells stably expressing human Nav1.5, holding potential -85 mV, Table 5, read-out: Nav1.5 IC50 (5 Hz, AF Rate). From the text: (§1) Electrophysiology was used to measure the ionic currents in isolated living cells using automated patch-clamp recording, performed using an automated patch-clamp machine called Qpatch (Sophion Bioscience). Two different assay conditions were used to identify compounds with atrial-selective potential. The 5-Hz AF-like assay has more depolarized holding potential at −85 mV to mimic atrial resting membrane potential (RMP) and was used to identify compounds of strong rate-dependence. Active, rate-dependent compounds were then screened at 1 Hz (i.e., sinus rate) at the holding potential of −100 mV to mimic the ventricular scenario and help identify compounds with the largest potency separation or attenuation from the 5-Hz AF-like assay. Such compounds have the potential for treating AF without the QRS liability inherent to Class Ic drugs.
(§2) The sodium current conducted through a cell (via Nav1.5) or electrical signals were processed through a low-pass filter at 5 KHz, re-digitalized and acquired at 20 kHz. Series resistance was not compensated and leak subtraction was performed.
(§3) 1 to 3 million Chinese Hamster Ovary cells (also known as CHO-K1) stably expressing human Nav1.5 were seeded into […] culture flasks with 25 mL medium (consisting of Gibco Dulbecco's Modified Eagle Medium as a base medium with 1% MEM non-essential amino acids, 400 μg/mL Geneticin, 5 μg/mL puromycin and 10% fetal bovine serum) 48-72 hours prior to the experiments. On the day of the experiment, cells were washed once with phosphate-buffered saline (also known as PBS; Gibco) detached with Detachin™ (Genlantis), and re-suspended in CHO—S-SFM II media (Gibco) at 200,000 cells/mL. The CHO—S-SFM II was replaced with assay solutions prior to the assays. Whole-cell currents were recorded at room temperature in the whole-cell configuration. The external aqueous assay solution (pH=7.4; Osm=307-315) contained the following (the concentration for each component is expressed in parentheses in mM): NaCl (140 mM), KCl (4 mM), CaCl2) (2 mM), MgCl2 (1 mM), 4-(2-hydroxyethyl)-1-piperazineethanesulfonic acid, also known as HEPES (10 mM), and glucose (5 mM). The internal aqueous assay solution (pH=7.2; Osm=292-295) contained the following (the concentration for each component is expressed in parentheses in mM): CsF (110 mM), CsCl (10 mM), NaCl (10 mM), HEPES (10 mM), and ethylene glycolbis(β-aminoethyl ether)-N,N,N′,N′-tetraacetic acid, also known as EGTA (10 mM).
To assess peak Nav1.5 current inhibition in an atrial fibrillation-mimicking condition (Nav1.5 IC50 (5 Hz, AF-like rate) (μM)), compounds were first prepared at 10 mM in DMSO, and cells were pre-incubated with test compounds at each concentration for 3 min. in an ascending order of 0, 0.37, 1.1, 3.3, 10 and 30 μM. An atrial action potential-like protocol consisting of a voltage ramp (+10 mV to −85 mV for a 150 ms duration and a holding potential at −85 mV) was then applied to cells at 5 Hz for 12 s until no further current change or inhibition was observed. The percent inhibition (expressed as ([Iafter compound treatment/Ibefore compound treatment]×100%) is calculated by normalizing the peak current amplitude at the last pulse of each of the 6 compound concentrations by the amplitude before exposure to the test compound. The compiled data was further normalized by vehicle control (DMSO) to account for Nav1.5 current run-down, and IC50 was calculated by Matlab (MathWorks, USA).
(Patch clamp records ionic current or voltage across a cell membrane.)

Series [2] addresses T1, human Nav1.5. The series can be described thus: Qpatch automated patch-clamp, peak Nav1.5 current inhibition, 1 Hz sinus rate, ventricular condition (holding potential -100 mV). Conditions: CHO-K1 cells stably expressing human Nav1.5, without ATX-II.
From the text: as §1, §2, §3
(§4) To assess peak Nav1.5 current inhibition mimicking a ventricular condition at sinus rate with or without ATX-II (Nav1.5 IC50 (1 Hz, ATXII) (μM) or (1 Hz, Sinus Rate) (μM)), compounds were first prepared at 10 mM in DMSO, and cells were pre-incubated with test compounds at each concentration for 3 min. in an ascending order of 0, 0.37, 1.1, 3.3, 10 and 30 uM. In the assay with ATX-II (Alomone Labs), 50 nM ATX-II was included during the 3-min. compound incubation. A square pulse (−10 mV; 400 ms and a holding potential at −100 mV) was run at 1 Hz for 25 s until no further inhibition or Nav1.5 current change was observed. The percent inhibition (expressed as ([Iafter compound treatment/Ibefore compound treatment]×100%) is calculated by normalizing the peak current amplitude at the last pulse of each of the 6 compound concentrations by the amplitude before exposure to the test compound. The compiled data was further normalized by vehicle control (DMSO) to account for Nav1.5 current run-down, and IC50 was calculated by Matlab (MathWorks, USA).

For series [3], the target named is T1, human Nav1.5. Kind of series: Qpatch automated patch-clamp, peak Nav1.5 current inhibition, 1 Hz with 50 nM ATX-II (holding potential -100 mV). Conditions: CHO-K1 cells stably expressing human Nav1.5, read-out: Nav1.5 IC50 (1 Hz, ATXII).
From the text: as §1, §2, §3, §4

T1 sequence (Q14524 whole entry): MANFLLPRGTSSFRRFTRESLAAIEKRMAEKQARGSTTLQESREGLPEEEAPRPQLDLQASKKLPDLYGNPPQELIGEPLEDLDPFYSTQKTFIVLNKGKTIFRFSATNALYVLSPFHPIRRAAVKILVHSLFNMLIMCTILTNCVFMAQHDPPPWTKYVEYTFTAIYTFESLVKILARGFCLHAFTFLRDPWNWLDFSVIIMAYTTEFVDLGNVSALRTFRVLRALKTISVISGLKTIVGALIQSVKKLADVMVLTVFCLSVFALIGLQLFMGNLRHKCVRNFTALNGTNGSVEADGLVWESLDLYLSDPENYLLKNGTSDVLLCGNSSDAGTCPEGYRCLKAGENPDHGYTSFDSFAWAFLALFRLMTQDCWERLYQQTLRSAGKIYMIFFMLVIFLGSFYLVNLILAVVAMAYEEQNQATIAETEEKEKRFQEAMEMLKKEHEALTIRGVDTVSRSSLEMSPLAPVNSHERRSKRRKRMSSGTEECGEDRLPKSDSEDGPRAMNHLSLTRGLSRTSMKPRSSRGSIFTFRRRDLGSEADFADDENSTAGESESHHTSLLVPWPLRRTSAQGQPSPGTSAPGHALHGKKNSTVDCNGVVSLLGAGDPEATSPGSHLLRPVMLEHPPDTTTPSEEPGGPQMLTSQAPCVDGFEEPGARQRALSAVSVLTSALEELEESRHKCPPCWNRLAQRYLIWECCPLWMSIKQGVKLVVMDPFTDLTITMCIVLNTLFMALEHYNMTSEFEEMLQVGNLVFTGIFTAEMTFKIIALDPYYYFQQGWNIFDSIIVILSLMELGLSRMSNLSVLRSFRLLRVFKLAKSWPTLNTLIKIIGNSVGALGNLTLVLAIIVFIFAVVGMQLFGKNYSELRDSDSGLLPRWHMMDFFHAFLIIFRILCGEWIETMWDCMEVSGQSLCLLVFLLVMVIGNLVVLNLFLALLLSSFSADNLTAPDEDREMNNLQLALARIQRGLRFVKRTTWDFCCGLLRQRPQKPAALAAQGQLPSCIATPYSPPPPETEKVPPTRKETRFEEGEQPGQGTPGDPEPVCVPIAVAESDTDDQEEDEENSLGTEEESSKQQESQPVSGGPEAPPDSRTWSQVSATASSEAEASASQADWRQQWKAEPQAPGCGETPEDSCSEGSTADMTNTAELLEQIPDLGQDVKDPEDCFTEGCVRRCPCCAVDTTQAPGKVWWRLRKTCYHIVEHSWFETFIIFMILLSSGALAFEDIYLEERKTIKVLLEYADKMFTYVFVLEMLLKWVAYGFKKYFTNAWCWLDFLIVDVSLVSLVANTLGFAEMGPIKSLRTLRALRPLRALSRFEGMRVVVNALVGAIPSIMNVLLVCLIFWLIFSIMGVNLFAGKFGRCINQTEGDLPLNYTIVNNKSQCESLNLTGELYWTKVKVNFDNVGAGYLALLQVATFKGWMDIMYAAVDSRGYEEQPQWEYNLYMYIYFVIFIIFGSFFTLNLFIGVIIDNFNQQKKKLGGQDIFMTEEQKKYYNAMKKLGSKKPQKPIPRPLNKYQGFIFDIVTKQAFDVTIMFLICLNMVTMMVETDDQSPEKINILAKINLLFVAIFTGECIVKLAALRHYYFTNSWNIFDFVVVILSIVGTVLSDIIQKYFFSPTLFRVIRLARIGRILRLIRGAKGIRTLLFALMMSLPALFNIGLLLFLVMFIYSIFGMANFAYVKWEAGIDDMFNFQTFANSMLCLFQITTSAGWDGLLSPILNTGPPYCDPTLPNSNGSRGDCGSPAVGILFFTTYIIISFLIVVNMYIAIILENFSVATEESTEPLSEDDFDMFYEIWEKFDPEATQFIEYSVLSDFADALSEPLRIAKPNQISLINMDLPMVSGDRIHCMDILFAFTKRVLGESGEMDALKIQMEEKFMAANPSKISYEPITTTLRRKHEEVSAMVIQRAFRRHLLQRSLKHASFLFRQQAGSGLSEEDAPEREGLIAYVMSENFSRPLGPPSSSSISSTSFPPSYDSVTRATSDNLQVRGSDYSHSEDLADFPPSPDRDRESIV

A word on the IC50: it is the point on the concentration scale where inhibition reaches its midpoint. With `CC(O)(CS(N)(=O)=O)c1cccc(-c2nnn(Cc3c(F)ccc4c3OC(F)(F)O4)n2)n1` (single isomer, unassigned) [Example 4, (R or S)-2-hydroxy-2-(6-(2-((2,2,5-trifluorobenzo[d][1,3]dioxol-4-yl)methyl)-2H-tetrazol-5-yl)pyridin-2-yl)propane-1-sulfonamide], the IC50 in series [1] was 6.7 µM; in series [2] it was over 30 µM.
On to `CC(O)(CS(N)(=O)=O)c1cccc(-c2nnn(Cc3c(F)ccc4c3OC(F)(F)O4)n2)n1` (single isomer, unassigned) [Example 3, (R or S)-2-hydroxy-2-(6-(2-((2,2,5-trifluorobenzo[d][1,3]dioxol-4-yl)methyl)-2H-tetrazol-5-yl)pyridin-2-yl)propane-1-sulfonamide], for which the figures for the IC50 in series [1] and in series [2] were 7.5 µM and over 30 µM, respectively.
In the same order, the values of `CC(c1cccc(-c2nnn(Cc3cc(OC(F)(F)F)ccc3F)n2)n1)C(CO)S(N)(=O)=O` (single isomer, unassigned) [Example 32, (2R or 2S,3R or 3S)-3-(6-(2-(2-fluoro-5-(trifluoromethoxy)benzyl)-2H-tetrazol-5-yl)pyridin-2-yl)-1-hydroxybutane-2-sulfonamide] are 2.7 µM and 28 µM.
Regarding `CC(O)(CS(N)(=O)=O)c1ccc(Cl)c(-c2nnn(Cc3cc(OC(F)(F)F)ccc3F)n2)n1` (racemic) [Rac-27 + 28, 2-(5-chloro-6-(2-(2-fluoro-5-(trifluoromethoxy)benzyl)-2H-tetrazol-5-yl)pyridin-2-yl)-2-hydroxypropane-1-sulfonamide], the IC50 in series [1] was determined as 1.1 µM; in series [3], 16 µM.
The matching figures for `CC(O)(CS(N)(=O)=O)c1cccc(-c2nnn(Cc3cc(Cl)ccc3F)n2)n1` (single isomer, unassigned) [Example 21, (R or S)-2-(6-(2-(5-chloro-2-fluorobenzyl)-2H-tetrazol-5-yl)pyridin-2-yl)-2-hydroxypropane-1-sulfonamide]: 6.3 µM and over 30 µM.
Consider `CC(C(O)c1cccc(-c2nnn(Cc3cc(OC(F)(F)F)ccc3F)n2)n1)S(N)(=O)=O` (single isomer, unassigned) [Example 51, (JR or 1S,2R or 2S)-1-(6-(2-(2-fluoro-5-(trifluoromethoxy)benzyl)-2H-tetrazol-5-yl)pyridin-2-yl)-1-hydroxypropane-2-sulfonamide], for which the IC50 in series [1] is 25 µM; in series [2], over 30 µM.
On to `NS(=O)(=O)CC(O)(c1cccc(-c2ccn(Cc3cc(OC(F)(F)F)ccc3F)n2)n1)C(F)(F)F` (racemic) [Example 39, 3,3,3-trifluoro-2-(6-(1-(2-fluoro-5-(trifluoromethoxy)benzyl)-1H-pyrazol-3-yl)pyridin-2-yl)-2-hydroxypropane-1-sulfonamide], for which the IC50 is 4.4 µM in series [1] and over 30 µM in series [3].
On to `CC(O)(CS(N)(=O)=O)c1cccc(-c2nnn(Cc3cccc(C(F)(F)F)c3)n2)n1` (single isomer, unassigned) [Example 41, (R or S)-2-hydroxy-2-(6-(2-(3-(trifluoromethyl)benzyl)-2H-tetrazol-5-yl)pyridin-2-yl)propane-1-sulfonamide], for which the IC50 in series [1] and in series [2] was over 30 µM throughout.
With `CC(O)(CS(N)(=O)=O)c1cccc(-c2cn(Cc3cc(OC(F)(F)F)ccc3F)nn2)n1` (single isomer, unassigned) [Rac-59 + 60, (R or S)-2-(6-(1-(2-fluoro-5-(trifluoromethoxy)benzyl)-1H-1,2,3-triazol-4-yl)pyridin-2-yl)-2-hydroxypropane-1-sulfonamide], the results for the IC50 in series [1] and in series [3] were 5.2 µM and 15 µM, respectively.
On to `CC(O)(CS(N)(=O)=O)c1cccc(-c2ccn(Cc3cc(OC(F)(F)F)ccc3F)n2)n1` (single isomer, unassigned) [Example 37, (R or S)-2-(6-(1-(2-fluoro-5-(trifluoromethoxy)benzyl)-1H-pyrazol-3-yl)pyridin-2-yl)-2-hydroxypropane-1-sulfonamide], for which the IC50 in series [1] came to 1.3 µM; in series [3], 14 µM.
As for `CC(O)(CS(N)(=O)=O)c1cccc(-c2nnn(Cc3cc(OC(F)(F)F)ccc3F)n2)c1` (single isomer, unassigned) [Rac-25 + 26, (R or S)-2-(3-(2-(2-fluoro-5-(trifluoromethoxy)benzyl)-2H-tetrazol-5-yl)phenyl)-2-hydroxypropane-1-sulfonamide], the IC50 was 2.2 µM in series [1] and over 30 µM in series [3].
The matching figures for `C[C@@](O)(CS(N)(=O)=O)c1cccc(-c2nnn(Cc3cc(OC(F)(F)F)ccc3F)n2)n1` [Example 2, (S)-2-(6-(2-(2-fluoro-5-(trifluoromethoxy)benzyl)-2H-tetrazol-5-yl)pyridin-2-yl)-2-hydroxypropane-1-sulfonamide]: 4.7 µM and over 30 µM.
In the same order, the values of `CC(O)(CS(N)(=O)=O)c1cccc(-c2cn(Cc3cc(OC(F)(F)F)ccc3F)nn2)n1` (single isomer, unassigned) [Example 59, (R or S)-2-(6-(1-(2-fluoro-5-(trifluoromethoxy)benzyl)-1H-1,2,3-triazol-4-yl)pyridin-2-yl)-2-hydroxypropane-1-sulfonamide] are 3.4 µM and 8.6 µM.
For `CC(O)(CS(N)(=O)=O)c1cccc(-c2cnn(Cc3cc(OC(F)(F)F)ccc3F)n2)n1` (single isomer, unassigned) [Example 61, (R or S)-2-(6-(2-(2-fluoro-5-(trifluoromethoxy)benzyl)-2H-1,2,3-triazol-4-yl)pyridin-2-yl)-2-hydroxypropane-1-sulfonamide], the IC50 in series [1] is 5 µM; in series [3], over 30 µM.
For the molecule `CC(O)(CS(N)(=O)=O)c1cccc(-c2nnn(Cc3cc(OCC(F)(F)F)ccc3F)n2)n1` (single isomer, unassigned) [Rac-29+30, (R or S)-2-(6-(2-(2-fluoro-5-(2,2,2-trifluoroethoxy)benzyl)-2H-tetrazol-5-yl)pyridin-2-yl)-2-hydroxypropane-1-sulfonamide], the IC50 worked out at 2.5 µM in series [1] and 3 µM in series [3].
The matching figures for `CC(O)(CS(N)(=O)=O)c1cccc(-c2ccn(Cc3cc(OC(F)(F)F)ccc3F)n2)n1` (single isomer, unassigned) [Rac-37 + 38, (R or S)-2-(6-(1-(2-fluoro-5-(trifluoromethoxy)benzyl)-1H-pyrazol-3-yl)pyridin-2-yl)-2-hydroxypropane-1-sulfonamide]: 2.3 µM and over 30 µM.
The matching figures for `NS(=O)(=O)CC(O)c1cccc(-c2ccn(Cc3cc(OC(F)(F)F)ccc3F)n2)n1` (racemic) [Example 36, 2-(6-(1-(2-fluoro-5-(trifluoromethoxy)benzyl)-1H-pyrazol-3-yl)pyridin-2-yl)-2-hydroxyethane-1-sulfonamide]: 3.7 µM and over 30 µM.

The values are drawn from US20250034108A1, “SODIUM CHANNEL BLOCKERS” (NOVARTIS AG, priority 2023, published 2025).
